The first assay addresses T1, human TRPA1 (Homo sapiens, UniProt O75762).
T1 construct: expressed in transfected cells
Put plainly: Cell-based functional intracellular calcium ([Ca2+]i) assay, Fluo-4/Fluo-8, FlexStation, challenge with reference TRPA1 agonist (FFA, AITC or 4-HNE).
Settings: not given
The procedure: A stable HEK293 cell line that expresses human TRPA1 in an inducible manner was employed in this assay. […] The expression of TRPA1 was induced by including 1 μg/ml doxycycline in the culture medium. For the induced cells, ruthenium red (5 μM) was also added to minimize the constitutive TRPA1 channel activity and cells were used 14-18 hrs after induction. To measure [Ca^2+]i changes, cells were seeded in wells of 96-well plates at ˜100,000 cells/well and grown for 14-18 hrs to reach confluency. To prevent cell loss from subsequent washing, the wells were treated with 20 μg/ml polyornithine (MW>30,000, Sigma, St Louis, Mo.) for >15 min and rinsed once with Hank's balanced salt solution without Mg^2+ and Ca^2+. […] In some experiments, Fluo-8-AM was used instead of Fluo-4-AM as the calcium-sensitive fluorescent probe. Probenecid (2 mM) was included in all solutions to prevent the leakage of Fluo-4 or Fluo-8 from the cells. At the end of the incubation, cells were washed three times with ECS and placed in 80 μL of the same solution. Fluorescence changes were measured using a fluid handling integrated fluorescence plate reader, FlexStation (Molecular Devices, Sunnyvale, Calif.). Stock solutions of test compounds were initially solubilized in 100% DMSO and then serially diluted to achieve the desired final concentration. […] Drugs were diluted into ECS at 2× or 3× the desired final concentrations and delivered to the sample plate by an integrated robotic 8-channel pipettor at preprogrammed time points. […] Experiments were performed at 20-25° C. For certain experiments, 0.1% BSA was included with the cells and test compounds.
The kinetic data obtained at each test concentration of drug represents a series of fluorescent intensities as a function of time.
Using a sequential addition protocol, test compounds were initially applied to the cells loaded with Fluo-4 or Fluo-8 and fluorescence changes in each well monitored for 2.5 min. The plate was read again in a kinetic mode after a 15-30 min incubation with the test compounds after obtaining baseline values (about 30 s) and subsequent addition of challenge with a reference TRPA1 agonist. Reference TRPA1 agonists in testing each compound included at least one of flufenamic acid (FFA), allyl isothiocyanate (AITC) and 4-hydroxynonenal (4-HNE).
Antagonist activity can be expressed in terms of IC50 with respect to TRPA1 and agonist activity can be expressed in terms of EC50 with respect to TRPA1.
T1 sequence (O75762 whole entry): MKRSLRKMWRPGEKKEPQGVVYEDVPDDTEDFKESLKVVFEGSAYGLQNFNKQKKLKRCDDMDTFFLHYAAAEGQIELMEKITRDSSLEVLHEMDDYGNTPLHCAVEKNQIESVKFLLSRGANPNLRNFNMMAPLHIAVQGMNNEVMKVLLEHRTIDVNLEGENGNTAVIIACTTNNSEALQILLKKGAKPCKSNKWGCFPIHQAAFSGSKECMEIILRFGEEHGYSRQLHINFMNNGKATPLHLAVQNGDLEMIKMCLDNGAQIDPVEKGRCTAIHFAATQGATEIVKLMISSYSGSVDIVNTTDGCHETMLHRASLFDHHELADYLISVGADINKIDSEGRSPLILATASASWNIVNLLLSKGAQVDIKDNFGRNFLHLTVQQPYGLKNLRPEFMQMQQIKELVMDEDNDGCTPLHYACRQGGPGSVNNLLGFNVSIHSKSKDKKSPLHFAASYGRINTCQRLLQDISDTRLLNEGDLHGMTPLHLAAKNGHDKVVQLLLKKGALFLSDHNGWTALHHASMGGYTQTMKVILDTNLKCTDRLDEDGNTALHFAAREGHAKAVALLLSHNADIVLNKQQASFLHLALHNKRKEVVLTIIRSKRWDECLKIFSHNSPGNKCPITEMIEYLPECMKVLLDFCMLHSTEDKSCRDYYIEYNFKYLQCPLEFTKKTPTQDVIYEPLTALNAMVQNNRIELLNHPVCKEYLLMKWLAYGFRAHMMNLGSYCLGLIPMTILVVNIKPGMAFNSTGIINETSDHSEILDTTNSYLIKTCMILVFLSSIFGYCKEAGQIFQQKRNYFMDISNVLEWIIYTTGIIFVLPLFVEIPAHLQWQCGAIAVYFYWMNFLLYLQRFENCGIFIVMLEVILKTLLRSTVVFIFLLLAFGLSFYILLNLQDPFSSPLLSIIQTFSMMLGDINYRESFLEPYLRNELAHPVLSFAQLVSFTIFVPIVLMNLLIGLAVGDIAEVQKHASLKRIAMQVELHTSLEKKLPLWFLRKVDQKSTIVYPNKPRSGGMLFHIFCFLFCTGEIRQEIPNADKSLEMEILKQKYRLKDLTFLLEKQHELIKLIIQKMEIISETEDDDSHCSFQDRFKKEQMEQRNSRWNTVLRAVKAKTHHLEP
`CCCC1COC2(CCN(C(=O)c3cc(-c4ccncc4)n(-c4ccc(C(F)(F)F)c(F)c4)n3)CC2)O1` (centres unmarked) [Compound 117]: the IC50 was more than 25 µM.

Staying with this assay, now noted: HEK293 cells expressing human TRPA1; IC50 class after addition of reference TRPA1 agonist (FFA, AITC or 4-HNE); read-out: human TRPA1-HEK Activity.
For `O=C(c1cc(-c2ccncc2)n(-c2ccc(F)cc2F)n1)N1CCC(n2c(=O)[nH]c3ccccc32)CC1` [Compound 153], the IC50 is more than 25 µM.

For `N#Cc1ccc(-n2nc(C(=O)N3CCC(n4c(=O)[nH]c5ccc(F)c(F)c54)CC3)cc2-c2cccnc2)cc1F` [Compound 224], the IC50 was 0.001 to 5 µM.

Turning to `CN1C(=O)NC2(CCN(C(=O)c3cc(-c4ccncc4)n(-c4ccc(C(F)(F)F)c(F)c4)n3)CC2)C1=O` [Compound 118], the IC50 was more than 25 µM.

For `O=C(c1cc(-c2cccnc2)n(-c2ccc(F)c(C(F)(F)F)c2)n1)N1CCC(N2Cc3c(F)cccc3NC2=O)CC1` [Compound 289], the IC50 is 0.001 to 5 µM.

On to `N#CC1(c2ccccc2)CCN(C(=O)c2cc(-c3ccncc3)n(-c3ccccc3)n2)CC1` [Compound 28], for which the IC50 was more than 25 µM.

For the compound `O=C(c1cc(-c2cccnc2)n(-c2cc(F)c(C(F)(F)F)cc2F)n1)N1CCC(n2c(=O)[nH]c3ccc(F)c(F)c32)CC1` [Compound 223], the IC50 is 0.001 to 5 µM.

As for `O=C(c1cc(-c2cccnc2)n(-c2c(Cl)cc(C(F)(F)F)cc2Cl)n1)N1CCC2(CC1)C(=O)NCN2c1ccc(F)c(F)c1` [Compound 219], the IC50 was in the range of 0.001 to 5 µM.

Turning to `N#Cc1ccc(-n2nc(C(=O)N3CCC4(CC3)C(=O)NCN4c3ccc(F)c(F)c3)cc2-c2cccnc2)cc1F` [Compound 216], the IC50 is 0.001 to 5 µM.

Turning to `O=C(c1cc(-c2ccncc2)n(-c2ccccc2)n1)N1CCC(N2C(=O)OC[C@H]2c2ccccc2)CC1` [Compound 173], the IC50 was more than 25 µM.

As for `O=C(Nc1ccc2c(c1)OC(F)(F)O2)c1cc(-c2ccncc2)n(-c2ccc(C(F)(F)F)c(F)c2)n1` [Compound 109], the IC50 was more than 25 µM.

Turning to `O=C1OC2(CCN(C(=O)c3cc(-c4ccncc4)n(-c4ccccc4)n3)CC2)c2ccccc21` [Compound 171], the IC50 was more than 25 µM.

Consider `O=C(c1cc(-c2ccncc2)n(-c2ccc3c(c2)OCO3)n1)N1CCC2(CC1)C(=O)NCN2c1ccccc1` [Compound 155], for which the IC50 was more than 25 µM.

Consider `O=C(c1cc(-c2cccnc2)n(-c2ccc(C(F)(F)F)c(F)c2)n1)N1CCC2(CC1)C(=O)NCN2c1ccc(F)c(Cl)c1` [Compound 189], for which the IC50 lay within 0.001 to 5 µM.

With `O=C(c1cc(-c2cccnc2Cl)n(-c2ccc(C(F)(F)F)c(F)c2)n1)N1CCC2(CC1)C(=O)NCN2c1ccc(F)cc1` [Compound 317], the IC50 was in the range of 0.001 to 5 µM.

As for `O=C(c1cc(-c2ccncc2)n(-c2ccc(C(F)(F)F)c(F)c2)n1)N1CCC(n2c(=O)[nH]c3ccccc32)CC1` [Compound 162], the IC50 was 5 to 25 µM.

As to `Cc1cc(OC(F)(F)F)ccc1-n1nc(C(=O)N2CCC3(CC2)C(=O)NCN3c2ccc(F)c(F)c2)cc1-c1cccnc1` [Compound 225], the IC50 fell in the range of 0.001 to 5 µM.

As for `Cn1c(=O)n(C2CCN(C(=O)c3cc(-c4ccncc4)n(-c4ccc(F)c(F)c4)n3)CC2)c2ccccc21` [Compound 83], the IC50 is more than 25 µM.

As for `O=C(c1cc(-c2ccncc2)n(-c2ccc(F)c(F)c2)n1)N1CCC(N2C(=O)OC[C@H]2c2ccccc2)CC1` [Compound 84], the IC50 was more than 25 µM.

On to `N#Cc1cccc2[nH]c(=O)n(C3CCN(C(=O)c4cc(-c5cccnc5)n(-c5cc(F)c(F)c(F)c5)n4)CC3)c12` [Compound 232], for which the IC50 was 0.001 to 5 µM.

Turning to `O=C(c1cc(-c2ccncc2)n(-c2ccc(F)c(F)c2)n1)N1CC(=O)N2CCc3ccccc3C2C1` (centres unmarked) [Compound 82], the IC50 is more than 25 µM.

On to `CN1C(=O)NC2(CCN(C(=O)c3cc(-c4ccncc4)n(-c4cnccn4)n3)CC2)C1=O` [Compound 139], for which the IC50 was more than 25 µM.

On to `O=C(c1cc(-c2ccncc2)n(-c2ccc(C(F)(F)F)cc2)n1)N1CCC(n2c(=O)[nH]c3ccc(F)c(F)c32)CC1` [Compound 177], for which the IC50 lay in the range of 0.001 to 5 µM.

As to `O=C(c1cc(-c2ccncc2)n(-c2ccc(C(F)(F)F)nc2)n1)N1CCC2(CC1)OCc1ccccc12` [Compound 122], the IC50 is more than 25 µM.

`O=C(c1cc(-c2ccccn2)n(-c2cc(F)c(F)c(F)c2)n1)N1CCC(n2c(=O)[nH]c3ccc(F)c(F)c32)CC1` [Compound 252]: the IC50 fell in the range of 5 to 25 µM.

As to `O=C(c1cc(-c2ccncc2)n(-c2ccc(C(F)(F)F)cc2)n1)N1CCN2C(=O)OC[C@@H]2C1` [Compound 72], the IC50 was in the range of 5 to 25 µM.

Regarding `O=C(c1cc(-c2cncc(F)c2)n(-c2ccc(C(F)(F)F)c(F)c2)n1)N1CCC(n2c(=O)[nH]c3ccc(F)c(F)c32)CC1` [Compound 319], the IC50 lay within 0.001 to 5 µM.

As for `Cn1c(=O)c(=O)n(C)c2cc(NC(=O)c3cc(-c4ccncc4)n(-c4cnccn4)n3)ccc21` [Compound 133], the IC50 was more than 25 µM.

For the compound `O=C(c1nn(-c2ccc(F)c(C(F)(F)F)c2)c2c1CCc1cccnc1-2)N1CCC2(CC1)C(=O)NCN2c1ccc(F)cc1` [Compound 315], the IC50 fell in the range of 0.001 to 5 µM.

`O=C(c1cc(-c2ccncc2)n(-c2cnccn2)n1)N1CCC(n2c(=O)[nH]c3ccccc32)CC1` [Compound 168]: the IC50 lay in the range of 5 to 25 µM.

Turning to `N#Cc1ccc2[nH]c(=O)n(C3CCN(C(=O)c4cc(-c5cccnc5)n(-c5ccc(C#N)c(F)c5)n4)CC3)c2c1` [Compound 328], the IC50 fell in the range of 0.001 to 5 µM.

For the compound `O=C(c1cc(-c2ccncc2)n(-c2ccc(C(F)(F)F)nc2)n1)N1CCC(n2c(=O)[nH]c3ccccc32)CC1` [Compound 165], the IC50 was more than 25 µM.

With `O=C(c1cc(-c2ccncc2)n(-c2cc(C(F)(F)F)cc(C(F)(F)F)c2)n1)N1CCC2(CC1)C(=O)NCN2c1ccccc1` [Compound 158], the IC50 lay in the range of 5 to 25 µM.

As for `O=C(c1cc(-c2ccncc2)n(-c2ccc(C(F)(F)F)c(F)c2)n1)N1CCC2(CC1)C(=O)NCN2c1ccccc1` [Compound 161], the IC50 was in the range of 5 to 25 µM.

Consider `Cn1c(=O)c(=O)n(C)c2cc(NC(=O)c3cc(-c4ccncc4)n(-c4ccc(C(F)(F)F)c(F)c4)n3)ccc21` [Compound 112], for which the IC50 was more than 25 µM.

For the compound `Cc1cc(N2CNC(=O)C23CCN(C(=O)c2cc(-c4cccnc4)n(-c4cc(F)c(F)c(F)c4)n2)CC3)ccc1F` [Compound 255], the IC50 was in the range of 0.001 to 5 µM.

On to `O=C(c1cc(-c2ccncc2)n(-c2ccc(F)c(F)c2)n1)N1CCC2(CC1)C(=O)NCN2c1ccc(Cl)cc1` [Compound 78], for which the IC50 was more than 25 µM.

On to `O=C(c1cc(-c2cccnc2)n(-c2ccc(C(F)(F)F)c(F)c2)n1)N1CCC2(CC1)C(=O)NCN2c1ccc(F)c(F)c1` [Compound 181], for which the IC50 is 0.001 to 5 µM.

As to `O=C(c1cc(-c2ccncc2)n(-c2ccc(C(F)(F)F)nc2)n1)N1CCC2(CC1)C(=O)NCN2c1ccccc1` [Compound 164], the IC50 fell in the range of 5 to 25 µM.

Turning to `O=C1OC2(CCN(C(=O)c3cc(-c4ccncc4)n(-c4ccc(C(F)(F)F)cc4)n3)CC2)c2ccccc21` [Compound 58], the IC50 is more than 25 µM.

As for `O=C(c1cc(-c2ccncc2)n(-c2ccccc2)n1)N1CCN(c2cc(C(F)(F)F)cc(C(F)(F)F)c2)CC1` [Compound 33], the IC50 was more than 25 µM.

For the compound `O=C(c1cc(-c2cccnc2)n(-c2ccc(C(F)(F)F)cc2)n1)N1CCC2(CC1)C(=O)NCN2c1ccc(F)cc1` [Compound 49], the IC50 lay in the range of 0.001 to 5 µM.

With `N#Cc1ccc2c(c1)[nH]c(=O)n2C1CCN(C(=O)c2cc(-c3cccnc3)n(-c3cc(F)c(F)c(F)c3)n2)CC1` [Compound 229], the IC50 fell in the range of 0.001 to 5 µM.

As to `O=C1NC(=O)C2(CCN(C(=O)c3cc(-c4ccncc4)n(-c4ccccc4)n3)CC2)N1` [Compound 30], the IC50 was more than 25 µM.

On to `Cc1cc(OC(F)(F)F)ccc1-n1nc(C(=O)N2CCC(n3c(=O)[nH]c4ccc(F)c(F)c43)CC2)cc1-c1cccnc1` [Compound 227], for which the IC50 lay within 0.001 to 5 µM.

In the case of `O=C(c1cc(-c2cccnc2)n(-c2ccc(C(F)(F)F)c(F)c2)n1)N1CCN2C(=O)OC[C@@H]2C1` [Compound 191], the IC50 was in the range of 0.001 to 5 µM.

As to `Cn1c(=O)n(C2CCN(C(=O)c3cc(-c4ccncc4)n(-c4ccc(C(F)(F)F)nc4)n3)CC2)c2ccccc21` [Compound 126], the IC50 is more than 25 µM.

In the case of `O=C(c1cc(-c2cccnc2)n(-c2cc(F)c(F)c(F)c2)n1)N1CCC2(CC1)C(=O)NCN2c1ccc(F)cc1` [Compound 253], the IC50 lay within 0.001 to 5 µM.

Regarding `CC1CC2(CCN1C(=O)c1cc(-c3cccnc3)n(-c3ccc(F)c(C(F)(F)F)c3)n1)OC(=O)Nc1ccc(C(F)(F)F)cc12` (centres unmarked) [Compound 292], the IC50 was in the range of 5 to 25 µM.

On to `O=C(c1cc(-c2ccncc2)n(-c2ccccc2)n1)N1CCC2(CC1)C(=O)NCN2c1ccccc1` [Compound 8], for which the IC50 lay in the range of 5 to 25 µM.

Source of the values: patent US9951046B2, “TRPA1 modulators” (Algomedix, Inc., priority 2014, dated 2018).
